“Also recorded” adds a separate entry of the source.

Results on two compounds are retold here after patent US10940218B2, “Treatment of meningiomas using phenylbenzothiazole, stilbene, biphenylalkyne, or pyridine derivatives” (MAYO FOUNDATION FOR MEDICAL EDUCATION AND RESEARCH, priority 2012, dated 2021).

Test [1] deals with meningioma tissue sections. The test is described as follows: Fluorescent tissue staining of meningioma sections. It is filed as binding, human. The note with it: for location of staining within meningioma cells: tissue sections. An excerpt:
(§1) The Department of Pathology, Mayo Clinic Rochester Tumor Tissue Registry, contains tumor samples procured by autopsy and surgery. Meningiomas, brain metastases and other tumors were identified by searching CoPath, a Mayo Clinic electronic pathology database of tumors collected since 1982. Tumor type was confirmed by viewing H&E stained slides under a light microscope.
(§2) Fresh cut 5 μm thick sections were used. Each staining run included normal brain and Alzheimer diseased brain as controls. Fluorescent tissue staining and microscopy was performed similar to methods previously described at Ikonomovic M D, Klunk W E, Abrahamson E E, et al., “Post-mortem correlates of in vivo PiB-PET amyloid imaging in a typical case of Alzheimer's disease”, Brain: A Journal Of Neurology 2008; 131:1630-45. Meningioma and other brain tumor sections were stained with 100 nM CN-PiB, 100 nM of unlabeled PiB or with saline alone as a negative control. The staining protocol was as follows: deparaffinization and rehydration, 0.25% KMnO4 incubation, water wash, 1% K2S2O5/1% Oxalic Acid incubation, water wash, PBS wash, 6-CN-PiB/PiB/saline incubation, PBS wash, NaCl, K2HPO4, and KH2PO4 incubation, water wash, mount coverslip, and storage at 4° C. in the dark until imaged. Slides were imaged within five days of staining. Immunohistochemical staining of meningiomas for beta amyloid protein was performed using NCL-B-Amyloid mouse anti-human antibody per standard clinical protocol.
(§3) Tissue stain images were obtained on a Zeiss 510 confocal microscope with excitation at 405 nm, a 420-480 bandpass filter, and the laser set at 15% power.
(§4) Images were obtained with a C-Apochromat 40×/1.2 W lens.

In test [2] the test system is other intracranial tumors and brain tissue sections. The test can be described thus: Fluorescent tissue staining of other tumors and brain tissue. It is filed as binding, human.
Excerpt: as §1, §2, §3, §4

Test [3] relates to meningiomas. The test is described as follows: FDG PET/CT imaging of meningiomas. In kind it is in vivo, human. The source says:
(§5) An Alzheimer's imaging database of two hundred forty-one patients was reviewed. […] MRI reports of all patients were reviewed for possible meningiomas and other tumors. […] Tumors smaller than 7 millimeters are generally considered too small to be evaluated by PET or PET/CT.
(§6) The radiologic interpretations of MRI, CT and FDG PET/CT scans from a population of 834 people who participated in the population-based Mayo Clinic Study of Aging (MCSA) from March 2006 through September 2011 were reviewed for the presence of tumors or other brain lesions. (See, Kantarci K, Lowe V, Przybelski S A, et al., “Magnetic resonance spectroscopy, {beta}-amyloid load, and cognition in a population-based sample of cognitively normal older adults”, Neurology 2011; 77:951-8; and Roberts R O, Geda Y E, Knopman D S, et al., “The Mayo Clinic Study of Aging: design and sampling, participation, baseline measures and sample characteristics”, Neuroepidemiology 2008; 30:58-69.) Participants were randomly selected for recruitment in the MCSA from a population of older adult residents of Olmsted County, Minn., USA. Those with neurological, psychological or systemic illnesses were not excluded. Individuals with dementia, or those unable to be imaged for medical reasons were excluded. All patients were imaged with C11-PiB PET/CT, F18-FDG PET/CT and non-contrast MRI at least once as part of the study. Any additional patient imaging and clinical history was then reviewed.
PET imaging was performed as part of the Mayo Clinic Study of Aging as previously described. (See Kantarci K, Lowe V, Przybelski S A, et al., “Magnetic resonance spectroscopy, {beta}-amyloid load, and cognition in a population-based sample of cognitively normal older adults”, Neurology 2011; 77:951-8.) PiB PET/CT, then FDG PET/CT were performed on the same day. PET/CT imaging was performed on a 690XT or DRX PET/CT tomograph (GE Healthcare). The PET sinograms were reconstructed using a fully-3D OSEM algorithm into a 30 cm field of view; the pixel size was 1.2 mm and the slice thickness was 3.27 mm (DRX) or 1.96 mm (690XT). CT imaging was obtained immediately prior to PET acquisition and used for attenuation correction. Cerebral PiB retention, a marker of amyloid deposition, was measured as previously described. (See Kantarci K, Lowe V, Przybelski S A, et al. “Magnetic resonance spectroscopy, {beta}-amyloid load, and cognition in a population-based sample of cognitively normal older adults”, Neurology 2011; 77:951-8.)

Test [4] relates to non-meningioma tumors. The test can be described thus: FDG PET/CT imaging of non-meningioma tumors. It is filed as in vivo, human.
Excerpt: as §5, §6
PET imaging was performed as part of the Mayo Clinic Study of Aging as previously described. (See Kantarci K, Lowe V, Przybelski S A, et al., “Magnetic resonance spectroscopy, {beta}-amyloid load, and cognition in a population-based sample of cognitively normal older adults”, Neurology 2011; 77:951-8.) PiB PET/CT, then FDG PET/CT were performed on the same day. PET/CT imaging was performed on a 690XT or DRX PET/CT tomograph (GE Healthcare). […] Cerebral PiB retention, a marker of amyloid deposition, was measured as previously described. […]

`CNc1ccc(-c2nc3ccc(C#N)cc3s2)cc1` [Formula 6-CN-PiB]: the “fluorescent staining of meningioma tissue” value in test [1] (100 nM stain, 5 μm sections, fluorescent microscopy) is listed as “stained positively; also recorded: intense fluorescence”; in test [1] (100 nM stain, 5 μm sections, fluorescent microscopy, listed as highly-fluorescent version of the compound of Formula (V)), “accumulate”; in test [1] (multiple WHO grade I transitional type meningiomas) it was “stained positive”. The “staining brightness versus other intracranial tumors” value in test [1] (all meningiomas (n=7) vs other intracranial tumors (n=6)) is recorded as “qualitatively brighter”. In addition, the “location of staining within meningioma cells” value in test [1] is reported as “outside the nuclei, within the cytoplasm and/or cell membrane”; in test [1] (listed as highly-fluorescent version of the compound of Formula (V)) it was “within the nucleus of the cells of the meningiomas”. Also, the fluorescent staining entry is “very intense fluorescence” in test [2] (amyloid laden cerebral cortex, Alzheimer's disease, beta-amyloid plaques (positive control)); “scattered fluorescence; also recorded: staining in the nuclei of the cells” in test [2] (lung cancer brain metastasis); “almost no fluorescence” in test [2] (normal brain gray matter); “only trace fluorescence” in test [2] (schwannoma, FIG. 6 Panel E); “Moderate 6-CN-PiB binding” in test [2] (some other tumors).
On to Fluorodeoxyglucose [FDG], for which the “uptake on FDG-PET/CT” value in test [3] (Example 1, four meningiomas) is given as “no uptake”; in test [3] (Example 1, two meningiomas), “mild uptake”; in test [4] (Example 1, presumed extracranial schwannoma), “mild uptake”. Besides, the FDG activity result in test [3] (FIG. 3 meningioma) is reported as “only trace FDG activity”; in test [3] (seven of the 16 meningiomas), “moderate to high FDG activity”. The “FDG PET activity” value is reported as “increased FDG PET activity” in test [3] (FIG. 4 meningioma, panels G-I); “increased FDG PET activity; also recorded: positive” in test [4] (melanoma and small cell lung cancer metastases). For the same compound, the “FDG PET/CT result” value in test [4] (FIG. 5 pituitary macroadenoma) was “positive”.
